Reference: patent US20230357269A1 (LES LABORATOIRES SERVIER, priority 2020, published 2023)

The compounds below were run against human recombinant LRRK2 protein (Homo sapiens (Human), UniProt Q5S007) (assay: LRRK2 Kinase Activity Assay (ADP-Glo)). Conditions: LRRK2 wt; LRRKtide peptide and ATP substrates; 1h-incubation at 37° C.
Type: biochemical
Experimental: LRRK2 Kinase reactions were carried out in 384-well white polystyrene plates in a final volume of 6 μl using ADP-Glo™ Kinase Assay kit (Promega Corp.). Compound and substrates (LRRKtide peptide and ATP) in assay buffer were first dispensed in wells. Kinase reaction was then started by the addition of human recombinant LRRK2 protein. After 1h-incubation at 37° C., the enzymatic reaction was stopped by the addition of 6 μl of ADP-Glo Reagent-1 and an additional 40-minutes incubation at 23° C. (residual ATP depletion). A final 30-minutes incubation after 12 μL reagent-2 addition (ADP to ATP conversion and luciferin/luciferase reaction) was performed before luminescent signal acquisition (EnVision™ multimode plate reader-PerkinElmer, Inc.). Data from 10 individual concentrations of tested compounds (N=2) were fitted (XLfit™-ID Business Solutions Ltd) to deliver IC50s (compound concentration leading to 50% inhibition of reference enzymatic activity).
The compounds are dissolved to 5 mM in DMSO. When needed, solutions are sonicated in a bath sonicator.
Table 2 provides the IC50 values of the compounds according to the invention, obtained using the above-mentioned kinase assay. Activities are represented as +++, ++ and +, having the following meanings: • +++ means IC50<10 nM • ++ means 10 nM≤IC50<100 nM • + means 100 nM≤IC50<1 μM.

Sequence of human recombinant LRRK2 protein (Q5S007 whole entry): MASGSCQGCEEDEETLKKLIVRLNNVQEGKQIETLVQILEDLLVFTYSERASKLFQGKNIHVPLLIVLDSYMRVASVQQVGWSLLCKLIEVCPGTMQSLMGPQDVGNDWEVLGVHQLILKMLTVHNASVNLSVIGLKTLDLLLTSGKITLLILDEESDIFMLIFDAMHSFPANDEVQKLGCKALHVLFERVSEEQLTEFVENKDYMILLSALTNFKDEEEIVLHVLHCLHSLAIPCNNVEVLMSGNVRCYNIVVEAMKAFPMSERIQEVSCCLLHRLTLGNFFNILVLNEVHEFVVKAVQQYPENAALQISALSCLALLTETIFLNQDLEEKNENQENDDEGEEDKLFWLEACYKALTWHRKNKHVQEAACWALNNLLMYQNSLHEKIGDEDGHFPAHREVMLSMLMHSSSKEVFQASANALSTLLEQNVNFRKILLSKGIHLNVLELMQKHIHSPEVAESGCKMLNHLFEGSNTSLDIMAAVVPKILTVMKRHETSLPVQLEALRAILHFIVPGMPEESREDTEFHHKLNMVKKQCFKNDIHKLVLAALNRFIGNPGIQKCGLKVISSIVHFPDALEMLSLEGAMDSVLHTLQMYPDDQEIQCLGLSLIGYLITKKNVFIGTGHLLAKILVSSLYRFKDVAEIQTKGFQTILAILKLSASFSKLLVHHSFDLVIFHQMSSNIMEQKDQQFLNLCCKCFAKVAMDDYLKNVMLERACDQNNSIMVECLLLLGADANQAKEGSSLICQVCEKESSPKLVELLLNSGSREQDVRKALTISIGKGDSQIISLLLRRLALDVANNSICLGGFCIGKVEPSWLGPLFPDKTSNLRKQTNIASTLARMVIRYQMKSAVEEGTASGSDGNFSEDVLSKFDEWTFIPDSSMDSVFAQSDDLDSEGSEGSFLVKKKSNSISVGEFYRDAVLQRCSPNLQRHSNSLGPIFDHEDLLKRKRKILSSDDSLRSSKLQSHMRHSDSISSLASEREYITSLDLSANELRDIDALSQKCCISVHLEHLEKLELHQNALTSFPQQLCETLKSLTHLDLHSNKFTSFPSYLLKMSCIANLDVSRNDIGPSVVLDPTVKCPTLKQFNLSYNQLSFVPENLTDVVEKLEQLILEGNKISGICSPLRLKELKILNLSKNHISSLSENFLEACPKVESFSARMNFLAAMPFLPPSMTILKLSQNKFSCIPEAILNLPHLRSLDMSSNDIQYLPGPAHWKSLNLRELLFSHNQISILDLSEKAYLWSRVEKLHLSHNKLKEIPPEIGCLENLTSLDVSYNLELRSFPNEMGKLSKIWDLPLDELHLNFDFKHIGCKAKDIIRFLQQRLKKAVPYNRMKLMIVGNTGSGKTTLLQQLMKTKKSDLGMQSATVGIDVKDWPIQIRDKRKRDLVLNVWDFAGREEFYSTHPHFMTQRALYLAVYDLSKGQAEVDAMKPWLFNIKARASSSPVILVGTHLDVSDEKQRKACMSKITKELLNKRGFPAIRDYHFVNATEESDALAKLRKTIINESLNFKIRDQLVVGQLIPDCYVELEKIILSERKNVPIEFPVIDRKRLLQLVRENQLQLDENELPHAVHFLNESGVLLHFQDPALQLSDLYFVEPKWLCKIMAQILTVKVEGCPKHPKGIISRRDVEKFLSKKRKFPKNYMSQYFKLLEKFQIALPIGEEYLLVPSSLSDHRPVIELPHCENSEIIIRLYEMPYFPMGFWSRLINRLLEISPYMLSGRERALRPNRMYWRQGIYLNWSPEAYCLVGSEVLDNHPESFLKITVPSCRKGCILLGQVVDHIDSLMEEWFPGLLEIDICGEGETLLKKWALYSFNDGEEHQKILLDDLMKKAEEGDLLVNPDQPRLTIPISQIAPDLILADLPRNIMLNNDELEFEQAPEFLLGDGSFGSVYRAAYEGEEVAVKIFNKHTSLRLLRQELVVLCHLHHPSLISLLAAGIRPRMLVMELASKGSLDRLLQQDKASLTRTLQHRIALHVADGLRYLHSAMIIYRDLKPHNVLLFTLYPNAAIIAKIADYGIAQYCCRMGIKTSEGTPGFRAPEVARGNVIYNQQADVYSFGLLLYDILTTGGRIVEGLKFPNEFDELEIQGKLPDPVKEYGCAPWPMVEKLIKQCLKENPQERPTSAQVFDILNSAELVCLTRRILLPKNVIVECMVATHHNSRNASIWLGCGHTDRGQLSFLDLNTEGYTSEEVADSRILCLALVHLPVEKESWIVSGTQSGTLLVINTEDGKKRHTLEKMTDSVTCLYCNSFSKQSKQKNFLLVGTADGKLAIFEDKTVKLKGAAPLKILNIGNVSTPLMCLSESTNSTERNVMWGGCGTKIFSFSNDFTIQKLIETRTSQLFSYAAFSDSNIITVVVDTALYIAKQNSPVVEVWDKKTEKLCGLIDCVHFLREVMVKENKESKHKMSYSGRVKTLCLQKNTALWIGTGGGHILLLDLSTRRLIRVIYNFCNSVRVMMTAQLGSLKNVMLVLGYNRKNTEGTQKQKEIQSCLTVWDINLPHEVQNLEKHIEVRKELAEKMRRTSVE

SMILES | IC50 [nM]
O=C1NCCCOc2ccc3[nH]nc(c3c2)-c2cc(cc(N3CCNCC3)c2)CO1 [Example 81, 4-(piperazin-1-yl)-8,14-dioxa-10,19,20-triazatetracyclo[13.5.2.1^2,6.0^18,21]tricosa-1(20),2(23),3,5,15(22),16,18(21)-heptaen-9-one] | < 10
CN1CC=C(c2cc3cc(c2)-c2n[nH]c4ccc(cc24)OCCCNC(=O)OC3)CC1 [Example 39, 4-(1-methyl-1,2,3,6-tetrahydropyridin-4-yl)-8,14-dioxa-10,19,20-triazatetra cyclo[13.5.2.1^2,6.0^18,21]tricosa-1(20),2,4,6(23),15,17,21-heptaen-9-one] | < 10
CCC1CC2=NN1CCOC(=O)NCCCOc1ccc3[nH]nc2c3c1 (stereo not drawn) [Example 119, 4-ethyl-8,14-dioxa-5,10,19,20,23-pentaazatetracyclo[13.5.2.1^2,5.0^18,21]tricosa-1(20),2(23),15,17,21-pentaen-9-one] | 10 to 100
O=C1NCCCOc2ccc3[nH]nc(c3c2)-c2cc(F)c(F)c(c2)CO1 [Example 29, 4,5-difluoro-8,14-dioxa-10,19,20-triazatetracyclo[13.5.2.1^2,6.0^18,21]tricosa-1(20),2,4,6(23),15,17,21-heptaen-9-one] | < 10
CC1COC(=O)NCCCOc2ccc3[nH]nc(c3c2)-c2cnn1c2 (stereo not drawn) [Example 110, 6-methyl-8,14-dioxa-4,5,10,19,20-pentaazatetracyclo[13.5.2.1^2,5.0^18,21]tricosa-1(20),2(23),3,15,17,21-hexaen-9-one] | < 10
O=C1NCCCOc2ccc3[nH]nc(c3c2)-n2cnc(c2)CCO1 [Example 126, 8,14-dioxa-2,4,10,19,20-pentaazatetracyclo[13.5.2.1^2,5.0^18,21]tricosa-1(20),3,5(23),15(22),16,18(21)-hexaen-9-one] | 10 to 100
O=C1NCCCOc2ccc3[nH]nc(c3c2)C2=CN=C(CCO1)S2 [Example 149, 8,14-dioxa-23-thia-4,10,19,20-tetraazatetracyclo[13.5.2.1^2,5.0^18,21]tricosa-1(20),2,4,15(22),16,18(21)-hexaen-9-one] | < 10
Cc1cc2cc(c1F)C(C)OC(=O)NCCCOc1ccc3[nH]nc-2c3c1 (stereo not drawn) [Example 90, 5-fluoro-4,7-dimethyl-8,14-dioxa-10,19,20-triazatetracyclo[13.5.2.1^2,6.0^18,21]tricosa-1(20),2(23),3,5,15(22),16,18(21)-heptaen-9-one] | < 10
CC1CCNC(=O)OCc2cccc(n2)-c2n[nH]c3ccc(cc23)O1 (stereo not drawn) [Example 92, 13-methyl-8,14-dioxa-10,19,20,23-tetraazatetracyclo[13.5.2.1^2,6.0^18,21]tricosa-1(20),2(23),3,5,15(22),16,18(21)-heptaen-9-one] | < 10
CC(C)N1CCCOc2ccc3[nH]nc(c3c2)-c2cncc(c2)COC1=O [Example 6, 10-(propan-2-yl)-8,14-dioxa-4,10,19,20-tetraazatetracyclo[13.5.2.1^2,6.0^18,21]tricosa-1(20),2,4,6(23),15,17,21-heptaen-9-one] | 10 to 100
O=C1NCCCOc2ccc3[nH]nc(c3c2)-c2cc(cc(N3CCCC3)c2)CO1 [Example 12, 4-(pyrrolidin-1-yl)-8,14-dioxa-10,19,20-triazatetracyclo[13.5.2.1^2,6.0^18,21]tricosa-1(20),2,4,6(23),15,17,21-heptaen-9-one] | < 10
O=C1NCCCOc2ccc3[nH]nc(c3c2)-c2cc(cc(N3CC[C@@H](O)C3)c2)CO1 [Example 25, 4-[(3R)-3-hydroxypyrrolidin-1-yl]-8,14-dioxa-10,19,20-triazatetracyclo[13.5.2.1^2,6.0^18,21]tricosa-1(20),2,4,6(23),15,17,21-heptaen-9-one] | < 10

Second part, the compound after the results:

IC50 [nM] | SMILES
< 10 | C[C@H]1CCNC(=O)OCc2cncc(n2)-c2n[nH]c3ccc(cc23)O1 [Example 156, (13S)-13-methyl-8,14-dioxa-4,10,19,20,23-pentaazatetracyclo[13.5.2. 1^2,6.0^18,21]tricosa-1(20),2(23),3,5,15(22),16,18(21)-heptaen-9-one]
< 10 | O=C1NCCCOc2ccc3[nH]nc(c3c2)-c2ccnc(c2)CO1 [Example 7, 8,14-dioxa-5,10,19,20-tetraazatetracyclo[13.5.2.1^2,6.0^18,21]tricosa-1(20),2,4, 6(23),15,17,21-heptaen-9-one]
< 10 | CCN(CC)c1cc2cc(c1)-c1n[nH]c3ccc(cc13)OCCCNC(=O)OC2 [Example 47, 4-(diethylamino)-8,14-dioxa-10,19,20-triazatetracyclo[13.5.2.1^2,6.0^18,21]tricosa-1(20),2,4,6(23),15,17,21-heptaen-9-one]
< 10 | CN1CCN(Cc2cc3cc(c2)-c2n[nH]c4ccc(cc24)OCCCNC(=O)OC3)CC1 [Example 44, 4-[(4-methylpiperazin-1-yl)methyl]-8,14-dioxa-10,19,20-triazatetracyclo[13.5.2.1^2,6.0^18,21]tricosa-1(20),2,4,6(23),15,17,21-heptaen-9-one]
< 10 | CC1CCNC(=O)OCc2cc(F)cc(c2)-c2n[nH]c3ccc(cc23)O1 (single isomer, unassigned) [Example 100, (13R) or (13S)-4-fluoro-13-methyl-8,14-dioxa-10,19,20-triazatetracyclo[13.5.2.1^2,6.0^18,21]tricosa-1(20),2(23),3,5,15(22),16,18(21)-heptaen-9-one]
10 to 100 | O=C1NCCCOc2ccc3[nH]nc(c3c2)-c2cc(cc(CN3CCCCC3)c2)CO1 [Example 43]
< 10 | O=C1NCCCOc2ccc3[nH]nc(c3c2)-c2cc(cc(N3CCC4(COC4)C3)c2)CO1 [Example 14, 4-{2-oxa-6-azaspiro[3.4]octan-6-yl}-8,14-dioxa-10,19,20-triazatetracyclo[13.5.2.1^2,6.0^18,21]tricosa-1(20),2,4,6(23),15,17,21-heptaen-9-one]
< 10 | C#Cc1cc2cc(c1)-c1n[nH]c3ccc(cc13)OCCCNC(=O)OC2 [Example 80, 4-ethynyl-8,14-dioxa-10,19,20-triazatetracyclo[13.5.2.1^2,6.0^18,21]tricosa-1(20),2(23),3,5,15(22),16,18(21)-heptaen-9-one]
< 10 | C[C@@H]1CCNC(=O)OCc2cc(ccc2C#N)-c2n[nH]c3ccc(cc23)O1 [Example 128, (13R)-13-methyl-9-oxo-8,14-dioxa-10,19,20-triazatetracyclo[13.5.2.1^2,6. 0^18,21]tricosa-1(20),2,4,6(23),15,17,21-heptaene-5-carbonitrile]
< 10 | CC1CCOc2ccc3[nH]nc(c3c2)-c2cccc(c2)COC(=O)N1 (stereo not drawn) [Example 72, 11-methyl-8,14-dioxa-10,19,20-triazatetracyclo[13.5.2.1^2,6.0^18,21]tricosa-1(20),2,4,6(23),15,17,21-heptaen-9-one]
< 10 | O=C1NCCCOc2ccc3[nH]nc(c3c2)-c2cc(cc(N3CCN(C4COC4)CC3)c2)CO1 [Example 15, 4-[4-(oxetan-3-yl)piperazin-1-yl]-8,14-dioxa-10,19,20-triazatetracyclo[13.5.2.1^2,6.0^18,21]tricosa-1(20),2,4,6(23),15,17,21-heptaen-9-one]
< 10 | O=C1NCCCOc2ccc3[nH]nc(c3c2)-c2cc(cc(C3CC3)c2)CO1 [Example 48, 4-cyclopropyl-8,14-dioxa-10,19,20-triazatetracyclo[13.5.2.1^2,6.0^18,21]tricosa-1(20),2,4,6(23),15,17,21-heptaen-9-one]
< 10 | C[C@@H]1CCNC(=O)OCCn2ncc(n2)-c2n[nH]c3ccc(cc23)O1 [Example 159, (13R)-13-methyl-8,14-dioxa-4,5,10,19,20,23-hexaazatetracyclo[13.5.2.1^2,5.0^18,21]tricosa-1(20),2(23),3,15,17,21-hexaen-9-one]
< 10 | O=C1NCCCOc2ccc3[nH]nc(c3c2)-c2cc(cc(N3CCC3)c2)CO1 [Example 35, 4-(azetidin-1-yl)-8,14-dioxa-10,19,20-triazatetracyclo[13.5.2.1^2,6.0^18,21]tricosa-1(20),2,4,6(23),15,17,21-heptaen-9-one]
< 10 | COC1CN(c2cc3cc(c2)-c2n[nH]c4ccc(cc24)OCCCNC(=O)OC3)C1 [Example 32, 4-(3-methoxyazetidin-1-yl)-8,14-dioxa-10,19,20-triazatetracyclo[13.5.2.1^2,6.0^18,21]tricosa-1(20),2,4,6(23),15,17,21-heptaen-9-one]
< 10 | C[C@@H]1CCNC(=O)O[C@H](C)c2cccc(n2)-c2n[nH]c3ccc(cc23)O1 [Example 136, (7R,13R)-7,13-dimethyl-8,14-dioxa-10,19,20,23-tetraazatetracyclo[13.5.2.1^2,6.0^18,21]tricosa-1(20),2,4,6(23),15,17,21-heptaen-9-one]
< 10 | C[C@@H]1CCNC(=O)O[C@H](C)c2cc(F)cc(c2)-c2n[nH]c3ccc(cc23)O1 [Example 106, (7R,13R)-4-fluoro-7,13-dimethyl-8,14-dioxa-10,19,20-triazatetracyclo[13.5.2.1^2,6.0^18,21]tricosa-1(20),2,4,6(23),15,17,21-heptaen-9-one]
< 10 | C[C@H]1CCNC(=O)OCc2cccc(c2)-c2n[nH]c3ccc(cc23)O1 [Example 62, (13S)-13-methyl-8,14-dioxa-10,19,20-triazatetracyclo[13.5.2.1^2,6.0^18,21]tricosa-1(20),2(23),3,5,15(22),16,18(21)-heptaen-9-one]
